T1: GST-DREAM (Homo sapiens, UniProt Q9Y2W7, Y130A)
T1 construct: gene KCNIP3
T1 sequence (Q9Y2W7 1-256 Y130A): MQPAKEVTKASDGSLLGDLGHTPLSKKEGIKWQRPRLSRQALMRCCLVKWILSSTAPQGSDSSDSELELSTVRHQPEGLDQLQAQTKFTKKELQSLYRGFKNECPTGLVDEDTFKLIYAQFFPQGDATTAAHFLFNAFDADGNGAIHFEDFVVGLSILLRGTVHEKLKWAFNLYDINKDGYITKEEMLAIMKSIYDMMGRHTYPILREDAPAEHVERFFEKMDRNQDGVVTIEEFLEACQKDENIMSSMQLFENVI

T2: His-DREAM (71–256); rDREAM (Homo sapiens, UniProt Q9Y2W7)
T2 construct: gene KCNIP3; residues 71-256, His-tagged, recombinant, immobilized on CM4 sensor chip; dimer and monomer in Ca2+
T2 sequence (Q9Y2W7 71-256): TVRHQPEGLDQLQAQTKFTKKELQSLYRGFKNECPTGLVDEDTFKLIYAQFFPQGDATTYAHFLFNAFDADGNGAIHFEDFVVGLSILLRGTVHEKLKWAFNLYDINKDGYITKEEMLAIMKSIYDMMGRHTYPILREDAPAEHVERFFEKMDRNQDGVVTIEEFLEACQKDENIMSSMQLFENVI

T3: GST-DREAM (Homo sapiens, UniProt Q9Y2W7, Y118A)
T3 construct: gene KCNIP3
T3 sequence (Q9Y2W7 1-256 Y118A): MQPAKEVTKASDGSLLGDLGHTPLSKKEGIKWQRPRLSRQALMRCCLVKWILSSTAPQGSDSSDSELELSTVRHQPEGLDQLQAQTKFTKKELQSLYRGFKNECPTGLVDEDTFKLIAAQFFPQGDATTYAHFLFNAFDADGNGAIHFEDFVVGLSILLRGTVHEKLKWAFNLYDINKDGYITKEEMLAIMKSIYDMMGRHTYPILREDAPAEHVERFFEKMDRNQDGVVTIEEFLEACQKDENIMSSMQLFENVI


What was measured:
GST-DREAM [1] = biological target: T1, GST-DREAM; test: SPR, immobilized protein; format: binding; conditions: CM5 chip; compared with wild type
[2] = biological target: T2, His-DREAM (71–256); rDREAM; test: SPR, immobilized protein; conditions: CM4 chip; binding depends on Ca2+ and Mg2+
GST-DREAM [3] = biological target: T3, GST-DREAM; test: SPR, immobilized protein; format: binding; conditions: CM5 chip; compared with wild type
[4] = biological target: the molecule itself; test: native gel or EMSA; 10% blue native (nondenaturing, nonreducing) polyacrylamide gel; His-DREAM 71-256 (50 ng, 100 nM) with 5 mM CaCl2, incubated 10 min at RT with 10, 30, 100 and 300 nM IQM-PC330; immunodetection with anti-DREAM antibody; dimer and monomer bands

| Molecule | SPR, immobilized protein (GST-DREAM [1]) | KD [2] | SPR, immobilized protein (GST-DREAM [3]) | stoichiometry N [4] |
| --- | --- | --- | --- | --- |
| CCCCc1ccc(-c2ccc(C(=O)O)c(NC(=O)Cc3ccc(Cl)c(Cl)c3)c2)cc1 [compound 19, 2-[2-(3,4-Dichlorophenyl)acetylamino]-4-(4′-n-butylphenyl)benzoic acid] | Tyr118Ala or Tyr130Ala showed a substantial decrease in the binding of the two ligands | 2.8 ± 0.3 · 10^−5 M | Tyr118Ala or Tyr130Ala showed a substantial decrease in the binding of the two ligands |  |
| CCCCc1ccc(-c2ccc(NC(=O)Cc3ccc(Cl)c(Cl)c3)c(C(=O)O)c2)cc1 [compound 36, 2-[2-(3,4-Dichlorophenyl)acetylamino]-5-(4’-n-butylphenyl)benzoic acid] | Tyr118Ala or Tyr130Ala showed a substantial decrease in the binding of the two ligands | 3.9 ± 0.4 · 10^−5 M | Tyr118Ala or Tyr130Ala showed a substantial decrease in the binding of the two ligands |  |
| Recombinant His-tagged soluble DREAM protein (aa 71–256) (domain or fragment, UniProt Q9Y2W7 71-256, looked up, DREAM (downstream regulatory element antagonist modulator; KChIP3, calsenilin), residues 71-256; Seen as dimer and monomer on blue native gels with 5 mM CaCl2; also called rDREAM; recombinant DREAM (amino acids 71–256); source: recombinant protein) TVRHQPEGLDQLQAQTKFTKKELQSLYRGFKNECPTGLVDEDTFKLIYAQFFPQGDATTYAHFLFNAFDADGNGAIHFEDFVVGLSILLRGTVHEKLKWAFNLYDINKDGYITKEEMLAIMKSIYDMMGRHTYPILREDAPAEHVERFFEKMDRNQDGVVTIEEFLEACQKDENIMSSMQLFENVI |  |  |  | 2 |
